The assay relates to P388 leukemia ip, CD2F1 mice, survival T/C. In words: NCI In Vivo Anticancer Drug Screen. Data for tumor model P388 Leukemia (intraperitoneal) in CD2F1 (CDF1) mice. Particulars: endpoint: median survival time, higher = longer survival. In outline: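 Mice carrying the transplanted tumor received test compound or vehicle. Survival was recorded in each group, and the value is the treated-group measurement divided by that of the vehicle-treated control group.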

[1] abbreviates: dose: 100.0 mg/kg/injection, schedule: Q01DX001 (ip), vehicle: saline with Tween-80.
Where [2] appears, read: dose: 200.0 mg/kg/injection, schedule: Q01DX001 (ip), vehicle: saline with Tween-80.
Setting [3] is: dose: 400.0 mg/kg/injection, schedule: Q01DX001 (ip), vehicle: saline with Tween-80.
[4] abbreviates: dose: 50.0 mg/kg/injection, schedule: Q01DX009 (ip), vehicle: saline with Tween-80.
The mark [5] stands for this setting: dose: 100.0 mg/kg/injection, schedule: Q01DX009 (ip), vehicle: saline with Tween-80.
[6] abbreviates: dose: 200.0 mg/kg/injection, schedule: Q01DX009 (ip), vehicle: saline with Tween-80.
The mark [7] stands for this setting: dose: 100.0 mg/kg/injection, schedule: Q01DX001 (ip), vehicle: saline.
Setting [8] is: dose: 50.0 mg/kg/injection, schedule: Q01DX009 (ip), vehicle: Klucel (hydroxypropylcellulose) (HPC).
Setting [9] is: dose: 100.0 mg/kg/injection, schedule: Q01DX009 (ip), vehicle: Klucel (hydroxypropylcellulose) (HPC).
Where [10] appears, read: dose: 200.0 mg/kg/injection, schedule: Q01DX009 (ip), vehicle: Klucel (hydroxypropylcellulose) (HPC).
[11] abbreviates: dose: 60.0 mg/kg/injection, schedule: Q01DX005 (ip), vehicle: Klucel (hydroxypropylcellulose) (HPC).
[12] abbreviates: dose: 120.0 mg/kg/injection, schedule: Q01DX005 (ip), vehicle: Klucel (hydroxypropylcellulose) (HPC).
[13] abbreviates: dose: 240.0 mg/kg/injection, schedule: Q01DX005 (ip), vehicle: Klucel (hydroxypropylcellulose) (HPC).
[14] abbreviates: dose: 100.0 mg/kg/injection, schedule: Q01DX009 (ip), vehicle: saline.
Where [15] appears, read: dose: 200.0 mg/kg/injection, schedule: Q01DX009 (ip), vehicle: saline.

“And” between values parts separate entries of the source, which are not always exact repeats. Equal values may be shown once. Inconclusive results and toxic doses are left out.

As for `CCCCCC(CN(C)C)C(=O)/C=C/c1ccc(C)cc1` (centres undefined), the T/C is 98 % of control (dose: 12.5 mg/kg/injection, schedule: Q01DX005 (ip), vehicle: saline with Tween-80); 100 % of control (dose: 25.0 mg/kg/injection, schedule: Q01DX005 (ip), vehicle: saline with Tween-80); 106 % of control and 97 % of control (dose: 50.0 mg/kg/injection, schedule: Q01DX005 (ip), vehicle: saline with Tween-80); 98 % of control (dose: 100.0 mg/kg/injection, schedule: Q01DX005 (ip), vehicle: saline with Tween-80).
Take `COc1ccc2c(c1)c(CC(N)=O)c(C)n2C(=O)c1ccc(Cl)nc1`: the T/C (dose: 52.75 mg/kg/injection, schedule: Q01DX005 (ip), vehicle: saline with Tween-80) was 94 % of control and the T/C (dose: 105.5 mg/kg/injection, schedule: Q01DX005 (ip), vehicle: saline with Tween-80) was 92 % of control.
Take `Cc1ccc(C)c(C2=C/C(=C/c3ccc(N(CCC#N)CCC#N)cc3)C(=O)O2)c1`: the T/C reads like this: under setting [1], 97 % of control; under setting [2], 92 % of control; under setting [3], 101 % of control.
For `CCCCCC1=C/N\C(C#N)=C(C#N)/N=C/C(CCCCC)=C\N\C(C#N)=C(C#N)/N=C\1`, the T/C is, setting by setting: (dose: 6.25 mg/kg/injection, schedule: Q01DX009 (ip), vehicle: Klucel (hydroxypropylcellulose) (HPC)) 93 % of control; (dose: 12.5 mg/kg/injection, schedule: Q01DX009 (ip), vehicle: Klucel (hydroxypropylcellulose) (HPC)) 93 % of control; (dose: 25.0 mg/kg/injection, schedule: Q01DX009 (ip), vehicle: Klucel (hydroxypropylcellulose) (HPC)) 93 % of control.
On to `COc1cc(OC)cc(-c2n[se]c(-c3cc(OC)cc(OC)c3)n2)c1`, for which the T/C is 87 % of control (dose: 1.56 mg/kg/injection, schedule: Q01DX009 (ip), vehicle: saline with Tween-80) and 89 % of control under setting [4].
Turning to `Cc1c(COC(=O)NC(C)C)c(COC(=O)NC(C)C)c2n1CSC2`, the T/C was 154 % of control (dose: 6.25 mg/kg/injection, schedule: Q01DX005 (ip), vehicle: Klucel + Tween-80); 169 % of control and 173 % of control (dose: 25.0 mg/kg/injection, schedule: Q01DX005 (ip), vehicle: Klucel + Tween-80).
In the case of `CCOC(=O)c1ccc(NC(CCSc2ccccc2)=NC(C)(C)C)cc1`, the T/C is, setting by setting: under setting [4], 103 % of control; under setting [5], 107 % of control; under setting [6], 94 % of control.
Taken in the same sequence, the figures for `CC(C)N(C(C)C)C1C2=C(CCSC2)OC(=O)C1(Cl)Cl` (centres undefined) were 103 % of control, 100 % of control and 96 % of control.
Consider `COC(=O)C1(C)CCCC2(C)c3cc(OC(C)=O)c(C(C)C)cc3CCC12` (centres undefined), for which the T/C under setting [7] is 100 % of control; the T/C (dose: 200.0 mg/kg/injection, schedule: Q01DX001 (ip), vehicle: saline) is 106 % of control; the T/C (dose: 400.0 mg/kg/injection, schedule: Q01DX001 (ip), vehicle: saline) is 105 % of control.
For `COCCNCCN1CCN(CCCN2c3ccccc3Sc3ccc(C(F)(F)F)cc32)CC1`, the T/C by setting is: (dose: 1.56 mg/kg/injection, schedule: Q01DX009 (ip), vehicle: saline) 104 % of control; (dose: 3.12 mg/kg/injection, schedule: Q01DX009 (ip), vehicle: saline) 100 % of control; (dose: 6.25 mg/kg/injection, schedule: Q01DX009 (ip), vehicle: saline) 107 % of control.
Regarding `O=CCCOC1CCCCO1` (centres undefined), the T/C was 116 % of control (dose: 50.0 mg/kg/injection, schedule: Q01DX009 (ip), vehicle: other); 110 % of control (dose: 100.0 mg/kg/injection, schedule: Q01DX009 (ip), vehicle: other); 104 % of control (dose: 200.0 mg/kg/injection, schedule: Q01DX009 (ip), vehicle: other).
Turning to `Cn1c(Cl)c(/C=N\Nc2ccc([N+](=O)[O-])cc2[N+](=O)[O-])c2ccccc21`, the T/C is, setting by setting: under setting [1], 92 % of control; under setting [2], 93 % of control; under setting [3], 91 % of control.
For the compound `CN(C)c1ccc(C=Nc2cccc(Cl)c2)cc1`, the T/C is 108 % of control under setting [8], 98 % of control under setting [9] and 103 % of control under setting [10].
For `CC(C)(C)c1cc(=O)[nH]c(NC(N)=O)n1`, the T/C is 96 % of control under setting [4], 90 % of control under setting [5] and 96 % of control under setting [6].
As to `COc1cccc2c1C(=N)c1c(O)c3c(c(O)c1C2=O)C[C@@](O)(C(=O)CO)C[C@@H]3OC1CC(N)C(O)C(C)O1` (some centres undefined), the T/C was 115 % of control (dose: 1.56 mg/kg/injection, schedule: Q04DX003 (ip), vehicle: water); 118 % of control (dose: 3.13 mg/kg/injection, schedule: Q04DX003 (ip), vehicle: water); 122 % of control (dose: 6.25 mg/kg/injection, schedule: Q04DX003 (ip), vehicle: water); 155 % of control and 163 % of control (dose: 25.0 mg/kg/injection, schedule: Q04DX003 (ip), vehicle: water); 173 % of control and 188 % of control (dose: 50.0 mg/kg/injection, schedule: Q04DX003 (ip), vehicle: water); 194 % of control and 217 % of control (dose: 100.0 mg/kg/injection, schedule: Q04DX003 (ip), vehicle: water). Moreover, the T/C (dose: 150.0 mg/kg/injection, schedule: Q04DX003 (ip), vehicle: water) is 165 % of control.
Regarding `CC(=O)Oc1c(Cl)c(Cl)c(C#N)c(Cl)c1C#N`, the T/C is, setting by setting: (dose: 25.0 mg/kg/injection, schedule: Q01DX009 (ip), vehicle: saline with Tween-80) 100 % of control and 105 % of control; under setting [4], 105 % of control.
Take `ClC(Cl)=C(Cl)C(Cl)=C(Cl)Cl`: the T/C (dose: 50.0 mg/kg/injection, schedule: Q01DX001 (ip), vehicle: saline) is 108 % of control and the T/C under setting [7] was 100 % of control.
With `COc1ccc(C2=NC(=O)OC2(C)C)cc1`, the T/C under setting [11] is 110 % of control, the T/C under setting [12] was 102 % of control and the T/C under setting [13] was 108 % of control.
On to `c1cc2c3c(c1)c1cc4c(cc1c[n+]3CCC2)OCO4`, for which the T/C is 110 % of control (dose: 3.13 mg/kg/injection, schedule: Q01DX009 (ip), vehicle: water); 119 % of control and 120 % of control (dose: 25.0 mg/kg/injection, schedule: Q01DX009 (ip), vehicle: water).
In the case of `CCCCCCCCCCCCCCCCCC[N+]1(CCC(C)C)CCSCC1`, the T/C reads like this: under setting [1], 88 % of control; under setting [2], 97 % of control.
Regarding `CCCCCCCCCCCCCCCCCCCCN1CCOCC1`, the T/C (dose: 12.5 mg/kg/injection, schedule: Q01DX009 (ip), vehicle: saline) was 102 % of control; the T/C (dose: 25.0 mg/kg/injection, schedule: Q01DX009 (ip), vehicle: saline) is 107 % of control; the T/C under setting [4] was 92 % of control; the T/C (dose: 50.0 mg/kg/injection, schedule: Q01DX009 (ip), vehicle: saline) was 101 % of control and 97 % of control; the T/C under setting [5] was 90 % of control; the T/C under setting [14] is 100 % of control. The T/C under setting [15] is 90 % of control.
With `CCCCCCCCCCCC(=O)C(=O)c1ccc(O)c(C)c1O`, the T/C under setting [8] was 107 % of control, the T/C under setting [9] was 105 % of control and the T/C under setting [10] is 110 % of control.
`NC(=O)N/N=C1/CCCCCC1(c1ccccc1)c1ccccc1`: the T/C reads like this: (dose: 30.0 mg/kg/injection, schedule: Q01DX005 (ip), vehicle: Klucel (hydroxypropylcellulose) (HPC)) 95 % of control; under setting [11], 89 % of control; under setting [12], 91 % of control.
Turning to `N/C(CCSc1ccccc1N=Cc1ccccc1O)=N/O`, the T/C is, setting by setting: (dose: 12.5 mg/kg/injection, schedule: Q01DX009 (ip), vehicle: olive oil, sesame oil, peanut oil) 102 % of control; (dose: 25.0 mg/kg/injection, schedule: Q01DX009 (ip), vehicle: olive oil, sesame oil, peanut oil) 104 % of control; (dose: 50.0 mg/kg/injection, schedule: Q01DX009 (ip), vehicle: olive oil, sesame oil, peanut oil) 104 % of control.
Turning to `O=Cc1cccc(O)c1O`, the T/C runs as follows: under setting [14], 103 % of control and 110 % of control; under setting [15], 115 % of control.
Take `COc1ccc(C2c3cc4c(cc3OC(C)(O)C2C)OCO4)cc1` (centres undefined): the T/C was 95 % of control under setting [11], 98 % of control under setting [12] and 93 % of control under setting [13].
